Laboratory results reported in patent US10577399B2, “Modified lantibiotics and methods of making and using the modified lantibiotics” (priority 2016, dated 2020).
In brackets after ≈: the same amount, converted by molar mass. Like-named read-outs stand apart in the source and are kept apart here. No end group written: not given here.

What was measured:
M. luteus ATCC 10240 [1] = assay type: cell-based, Micrococcus luteus; details: for M. luteus ATCC 10240 MIC / M. luteus ATCC 10240 MLC: Table 11
Protocol: (§1) Minimum Inhibitory Concentrations (MICs) were determined according to previously published protocol^31. A stock solution of the antibiotics tested was first suspended in 50% acetonitrile (ACN) at a concentration 640 μg/mL. This stock was subsequently diluted 2-fold until a final concentration 0.156 μg/mL was reached. Subsequently, 10 μl of each dilution was placed into a well on a 96 well microtiter plate. M. luteus ATCC 10240, S. pneumoniae, and B. subtilis PY79 were grown overnight in THyex at 37° C. Cultures were diluted in the morning to 0.1 OD600 and allowed to grow to 0.6 OD600. This culture was diluted a 100-fold in fresh THyex media and then 400 μl of this culture was added to 10 mL of fresh THyex. The suspension contains approximately 10^5 colony forming units (CFUs). The bacterial suspension (190 μL) was added to each well containing 10 μL of antibiotic suspension or solvent blank. […] Following the 15 minute pretreatment, 190 μL was added to each well as described above. The MIC is described as the […] concentration of antibiotic that prevented visible growth after 24 hours.
FIG. 11 illustrates the bioactivity of various core peptide mutants of mutacin 1130. The activity of the core mutant peptides is expressed as a ratio of the area of the zone of inhibition of each mutant strain to the area of the zone of inhibition of the wild-type strain against indicator strain of Micrococcus luteus. […] The deferred antagonism assay is an overlay assay of the indicator strain onto plates containing heat killed colonies of the mutacin producer strain after growing overnight. Core peptide mutants having inhibitory activity were isolated and the purified products were further evaluated by a standard minimum inhibitory concentration (MIC) assay.

M. luteus ATCC 10240 [2] = experiment: Deferred antagonism (overlay) assay, zone of inhibition; assay type: cell-based, Micrococcus luteus; details: relative to wild-type strain
Protocol: The deferred antagonism assay was performed as previously described^39. S. mutans strains were grown overnight in THyex broth at 37° C. The cultures were diluted to 0.1 OD OD600 and grown to mid-logarithmic phase before diluting to 0.05 OD600. Then, 2 μl of the cultures were spotted on THyex plates in duplicates of triplicates. The wild-type S. mutans JH1140 and S. mutans ΔmutA were used as positive and negative controls for activity, respectively. The plates were incubated for 18 hours in a candle jar at 37° C. After incubation, the strains were heat killed at 65° C. for 90 minutes. Fresh M. luteus grown overnight at 37° C. on THyex plates were used to inoculate pre-warmed THyex broth. The culture was grown to 0.6 to 0.8 OD before diluting to 0.2 OD600. The culture was further diluted 25-fold in melted (42° C.) THyex top agar. Approximately 5 mL of the top agar solution was spread on the heat killed bioassay plates and allowed to cool for 10 minutes. The plates were then placed in the incubator (at 37° C.) for 18 hours.
Streptococcus mutans ATCC 55676 (wild-type) and the mutants that were at an OD600 of 0.2 were spotted in triplicates on a pre-warmed THyex agar plate (150×15 mm) and allowed to dry. This assay was performed in this manner to ensure that each sample had the same colony size for comparing zones of inhibition. The plate was incubated for 24 hours then placed in an oven at 50° C. for thirty minutes to kill the bacteria before the indicator strain was overlaid. Heat killing the bacteria prevents any further antimicrobial compound production so that results seen are from single day incubation. Zone diameter was measured in millimeters across the plate and compared to wild-type (i.e. zone I for ATCC compared to zone I of Trp4Ala, etc.).

[3] = Pharmacokinetics after intravenous dose in mice; assay type: in vivo; details: 2.5 mg/kg i. v., BALB/c mice; at 70 minutes
Protocol: The compounds were dissolved in normal saline for all pharmacokinetic studies. An extraction protocol was developed in vitro by the addition of each compound to commercially bought BALB/c mouse serum. The compounds were extracted by the addition of 70% ACN containing 0.1% TFA/30% methanol containing 0.4% formic acid. The extract was then analyzed by LC-MS using a TSQ Vantage Triple Quad mass spectrometer. A standard curve was generated for each compound using known dilutions of the compounds in serum, which was then extracted. The R-squared values for each standard exceeded 0.98. BALB/c mice were used to evaluate pharmacokinetics of the compounds in vivo. A 2.5 mg/kg i. v. dose was evaluated for native mutacin, R13A, S5G, and double mutant S5A:T14G (FIG. 12A). A polynomial second order was used to estimate the peak plasma concentration and half-life of the R13A. […] Possibly, the Dhb14 residue may protect the peptide from trypsin-like proteases in the blood. […] Thus, taking the dynamics of cell death into account and the pharmacokinetics of the R13A, the R13A in serum is above the inhibitory concentration for S. pneumonia long enough to kill the pathogen.

C. accolens ATCC 49725 = experiment: MIC/MLC assay against C. accolens ATCC 49725; assay type: cell-based; details: THyex broth with 1% Tween 80
S. aureus ATCC 25923 = experiment: MIC/MLC assay against S. aureus; assay type: cell-based, Staphylococcus aureus; details: Table 11
C. accolens KPL 1818 = experiment: MIC/MLC assay against C. accolens KPL 1818; assay type: cell-based; details: THyex broth with 1% Tween 80
S. pneumoniae ATCC 27336 = assay type: cell-based, Streptococcus pneumoniae; details: Table 11
Protocol: as §1, with “hours. […]” for “hours.”

MIC (M. luteus ATCC 10240 [1]; ATCC 10240) [µg/mL] | C. accolens ATCC 49725 MIC (C. accolens ATCC 49725) [micrograms per milliliter] | S. aureus ATCC 25923 MIC (S. aureus ATCC 25923) [micrograms per milliliter] | M. luteus ATCC 10240 MIC (M. luteus ATCC 10240 [1]) [micrograms per milliliter] | C. accolens KPL 1818 MIC (C. accolens KPL 1818) [micrograms per milliliter] | S. pneumonia ATCC 27336 MIC (S. pneumoniae ATCC 27336) [micrograms per milliliter] | Molecule | zone of inhibition / inhibitory activity in deferred antagonism assay (M. luteus ATCC 10240 [2]) | plasma level / clearance from blood [3] | MIC (M. luteus ATCC 10240 [1]; Table 10, indicator strain Micrococcus luteus) [µg/mL] | activity relative to wild-type mutacin 1140 (M. luteus) (M. luteus ATCC 10240 [1]; purified variants) | C. accolens ATCC 49725 MLC (C. accolens ATCC 49725) [micrograms per milliliter] | S. aureus ATCC 25923 MLC (S. aureus ATCC 25923) [micrograms per milliliter] | M. luteus ATCC 10240 MLC (M. luteus ATCC 10240 [1]) [micrograms per milliliter] | C. accolens KPL 1818 MLC (C. accolens KPL 1818) [micrograms per milliliter] | S. pneumonia ATCC 27336 MLC (S. pneumoniae ATCC 27336) [micrograms per milliliter]
 | 0.5 | 32 | 0.25 | 0.5 | 2 | R13A:T14A: core peptide mutant of mutacin 1140, positions 13, 14 replaced by Alanine and Alanine (FKSWSLCTPGCAAAGSFNSYCC; UniProt O68586 42-63, looked up, variant R13A T14A) |  |  |  |  | 0.5 | 32 | 0.5 | 0.5 | 2
 | 1 | 16 | 0.125 | 1 | 0.5 | G15A*: core peptide mutant of mutacin 1140, Glycine 15 replaced by Alanine (FKSWSLCTPGCARTASFNSYCC; ends and bridges not checked; cysteine pairing not given here; UniProt O68586 42-63, looked up, variant G15A) | no change in activity |  |  |  | 1 | 16 | 0.125 | 2 | 0.5
 | 0.25 | 16 | 0.125 | 0.5 | 0.125 | S5A:A12S dehydrated: core peptide mutant of mutacin 1140, positions 5, 12 replaced by Alanine and Serine; dehydrated form (FKSWALCTPGCSRTGSFNSYCC; ends and bridges not checked; also: dehydrated form; UniProt O68586 42-63, looked up, variant S5A A12S) |  |  |  |  | 0.25 | 32 | 0.25 | 1 | 0.125

More lines, now with the values behind:

Molecule | MIC (M. luteus ATCC 10240 [1]; ATCC 10240) [µg/mL] | C. accolens ATCC 49725 MIC (C. accolens ATCC 49725) [micrograms per milliliter] | S. aureus ATCC 25923 MIC (S. aureus ATCC 25923) [micrograms per milliliter] | M. luteus ATCC 10240 MIC (M. luteus ATCC 10240 [1]) [micrograms per milliliter] | C. accolens KPL 1818 MIC (C. accolens KPL 1818) [micrograms per milliliter] | S. pneumonia ATCC 27336 MIC (S. pneumoniae ATCC 27336) [micrograms per milliliter] | zone of inhibition / inhibitory activity in deferred antagonism assay (M. luteus ATCC 10240 [2]) | plasma level / clearance from blood [3] | MIC (M. luteus ATCC 10240 [1]; Table 10, indicator strain Micrococcus luteus) [µg/mL] | activity relative to wild-type mutacin 1140 (M. luteus) (M. luteus ATCC 10240 [1]; purified variants) | C. accolens ATCC 49725 MLC (C. accolens ATCC 49725) [micrograms per milliliter] | S. aureus ATCC 25923 MLC (S. aureus ATCC 25923) [micrograms per milliliter] | M. luteus ATCC 10240 MLC (M. luteus ATCC 10240 [1]) [micrograms per milliliter] | C. accolens KPL 1818 MLC (C. accolens KPL 1818) [micrograms per milliliter] | S. pneumonia ATCC 27336 MLC (S. pneumoniae ATCC 27336) [micrograms per milliliter]
C=C1NC(=O)[C@H](Cc2c[nH]c3ccccc23)NC(=O)[C@H](NC(=O)[C@H](C)NC(=O)[C@@H](N)Cc2ccccc2)CSC[C@@H](C(=O)N[C@H]2C(=O)N3CCC[C@H]3C(=O)NCC(=O)N[C@H](C(=O)N[C@@H](C)C(=O)N[C@@H](CCCNC(=N)N)C(=O)N/C(=C\C)C(=O)NCC(=O)N[C@@H]3CSC[C@@H]4NC(=O)[C@H](Cc5ccc(O)cc5)NC(=O)[C@@H](CS/C=C\NC4=O)NC(=O)[C@H](CC(N)=O)NC(=O)[C@H](Cc4ccccc4)NC3=O)CS[C@H]2C)NC(=O)[C@H](CC(C)C)NC1=O [Mutant Lys2Ala] | 0.125 (≈ 0.0566 µM) |  |  |  |  |  | larger zone of inhibition |  |  |  |  |  |  |  | 
CC(C)C[C@@H]1NC(=O)[C@H](C)NC(=O)[C@H](Cc2c[nH]c3ccccc23)NC(=O)C(NC(=O)[C@H](CCCCN)NC(=O)[C@@H](N)Cc2ccccc2)CSC[C@@H](C(=O)NC2C(=O)N3CCC[C@H]3C(=O)NCC(=O)N[C@H](C(=O)N[C@@H](C)C(=O)N[C@@H](CCCNC(=N)N)C(=O)NCC(=O)NCC(=O)NC3CSC[C@@H]4NC(=O)[C@H](Cc5ccc(O)cc5)NC(=O)[C@@H](CS/C=C\NC4=O)NC(=O)[C@H](CC(N)=O)NC(=O)[C@H](Cc4ccccc4)NC3=O)CSC2C)NC1=O (some centres unmarked) [S5A:T14G] |  |  |  |  |  |  |  | performed the worst |  |  |  |  |  |  | 
C=C1NC(=O)[C@H](Cc2c[nH]c3ccccc23)NC(=O)[C@H](NC(=O)[C@H](CCCCN)NC(=O)[C@@H](N)Cc2ccccc2)CSC[C@@H](C(=O)N[C@H]2C(=O)N3CCC[C@H]3C(=O)NCC(=O)N[C@H](C(=O)N[C@@H](C)C(=O)N[C@@H](CCCNC(=N)N)C(=O)N/C(=C\C)C(=O)NCC(=O)N[C@@H]3CSC[C@@H]4NC(=O)[C@H](Cc5ccc(O)cc5)NC(=O)[C@@H](CS/C=C\NC4=O)NC(=O)[C@H](CC(N)=O)NC(=O)[C@H](Cc4ccccc4)NC3=O)CS[C@H]2C)NC(=O)[C@H](C)NC1=O [Mutant Leu6Ala] |  |  |  |  |  |  | larger zone of inhibition |  | 0.0625 (≈ 0.0281 µM) | two-fold more active |  |  |  |  | 
C-terminal fluorescein conjugate of mutacin 1140: mu1140-COOH coupled to 5-(aminoacetamido)fluorescein at the C-terminus (FKSWSLCTPGCARTGSFNSYCC-{5‑(aminoacetamido)fluorescein}; ends and bridges not checked; UniProt O68586 42-63, looked up) |  |  |  |  |  |  | has the inhibitory activity |  |  |  |  |  |  |  | 
